Legend:
[1] = biological target: Cyclin-dependent kinase 5/CDK5 activator 1 (Homo sapiens, UniProt Q00535); assay: Inhibition of human cdk5/p25 by SPA; assay type: protein-complex assay
[2] = Cytotoxicity against VeroC1008 cells at 6.25 to 50 ug/ml by neutral red uptake assay; assay type: cell-based; details: chlorocebus sabaeus, vero

Cyclin-dependent kinase 5/CDK5 activator 1, sequence (Q00535 whole entry): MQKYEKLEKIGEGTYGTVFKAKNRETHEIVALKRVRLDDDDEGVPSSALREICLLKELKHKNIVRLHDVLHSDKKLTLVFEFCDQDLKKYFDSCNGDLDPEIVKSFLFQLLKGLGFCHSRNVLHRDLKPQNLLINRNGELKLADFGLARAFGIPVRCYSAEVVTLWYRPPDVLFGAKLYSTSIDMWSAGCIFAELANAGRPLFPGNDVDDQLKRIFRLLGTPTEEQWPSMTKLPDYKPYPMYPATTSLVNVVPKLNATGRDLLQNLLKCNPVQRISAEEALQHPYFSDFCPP
Cyclin-dependent kinase 5/CDK5 activator 1, sequence (Q15078 whole entry, further chain): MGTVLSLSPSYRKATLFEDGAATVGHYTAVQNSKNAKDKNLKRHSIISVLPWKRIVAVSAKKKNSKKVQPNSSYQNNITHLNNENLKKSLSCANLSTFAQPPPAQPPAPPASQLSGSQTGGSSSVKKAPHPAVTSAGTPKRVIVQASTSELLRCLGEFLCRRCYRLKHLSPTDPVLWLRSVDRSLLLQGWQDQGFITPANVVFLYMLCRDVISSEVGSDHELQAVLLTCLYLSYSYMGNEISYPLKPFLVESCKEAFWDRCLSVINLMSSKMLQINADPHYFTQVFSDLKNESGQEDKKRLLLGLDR

| IC50 [1] | Structure (SMILES) | Activity [2] |
| --- | --- | --- |
| 201 nM | CC(=O)Nn1c(Cc2csc(NC(=O)CCl)n2)nnc1SCC(=O)NN | Non-toxic |
| 241 nM | CC(=O)Nc1nc(Cc2nnc(SCC(=O)NN)n2NC(C)=O)cs1 | Non-toxic |
| 643 nM | CC(=O)Nc1nc(Cc2nnc(SCC(=O)NNC(=O)CCl)n2NC(=O)c2ccccc2)cs1 | Non-toxic |
| 356 nM | CC(=O)Nn1c(Cc2csc(NC(=O)c3ccccc3)n2)nnc1SCC(=O)NNC(=O)CCl | Non-toxic |
| 467 nM | O=C(CSc1nnc(Cc2csc(NC(=O)CCl)n2)n1NC(=O)c1ccccc1)N/N=C/c1ccccc1 | Non-toxic |
| 614 nM | CC(=O)Nn1c(S)nnc1Cc1csc(NC(=O)c2ccccc2)n1 | Non-toxic |
| 463 nM | O=C(CSc1nnc(Cc2csc(NC(=O)c3ccccc3)n2)n1NC(=O)c1ccccc1)NNC(=O)c1ccccc1 | Non-toxic |
| 587 nM | COC(=O)CSc1nnc(Cc2csc(NC(C)=O)n2)n1NC(=O)c1ccccc1 | Non-toxic |
| 384 nM | CC(=O)NNC(=O)CSc1nnc(Cc2csc(NC(C)=O)n2)n1NC(C)=O | Non-toxic |
| 380 nM | COC(=O)CSc1nnc(Cc2csc(NC(C)=O)n2)n1NC(=O)c1ccc(Cl)cc1 | Non-toxic |
| 436 nM | CC(=O)Nc1nc(Cc2nnc(SCC(=O)NNC(=O)c3ccccc3)n2NC(C)=O)cs1 | Non-toxic |
| 467 nM | O=C(CSc1nnc(Cc2csc(NC(=O)CCl)n2)n1NC(=O)c1ccccc1)NNC(=O)c1ccccc1 | Non-toxic |
| 6340 nM | CC(=O)Nn1c(Cc2csc(NC(=O)c3ccccc3)n2)nnc1SCc1nnc(S)n1N | Non-toxic |
| 530 nM | O=C(CCl)NNC(=O)CSc1nnc(Cc2csc(NC(=O)CCl)n2)n1NC(=O)c1ccccc1 | Non-toxic |
| 487 nM | N#CCSc1nnc(Cc2csc(NCCC(=O)O)n2)n1NC(=O)c1ccccc1 | Non-toxic |
| 695 nM | COC(=O)CSc1nnc(Cc2csc(NC(=O)CCl)n2)n1NC(C)=O | Non-toxic |
| 465 nM | NNC(=O)CSc1nnc(Cc2csc(NCCC(=O)O)n2)n1NC(=O)c1ccccc1 | Non-toxic |
| 356 nM | CC(=O)NNC(=O)CSc1nnc(Cc2csc(NC(=O)CCl)n2)n1NC(=O)c1ccccc1 | Non-toxic |
| 421 nM | CC(=O)Nc1nc(Cc2nnc(SCC(=O)NNC(=O)c3ccccc3)n2NC(=O)c2ccccc2)cs1 | Non-toxic |

| IC50 [1] | Structure (SMILES) | Activity [2] |
| --- | --- | --- |
| 340 nM | CC(=O)NNC(=O)CSc1nnc(Cc2csc(NC(=O)c3ccccc3)n2)n1NC(=O)c1ccc(Cl)cc1 | Non-toxic |
| 246 nM | NNC(=O)CSc1nnc(Cc2csc(NC(=O)CCl)n2)n1NC(=O)c1ccccc1 | Non-toxic |
| 197 nM | CC(=O)Nc1nc(Cc2nnc(SCC(=O)NN)n2NC(=O)c2ccccc2)cs1 | Non-toxic |
| 641 nM | CC(=O)NNC(=O)CSc1nnc(Cc2csc(NC(C)=O)n2)n1NC(=O)c1ccc(Cl)cc1 | Non-toxic |
| 526 nM | O=C(O)CCNc1nc(Cc2nnc(SCC(=O)N/N=C/c3ccccc3)n2NC(=O)c2ccccc2)cs1 | Non-toxic |
| 6540 nM | CC(=O)Nc1nc(Cc2nnc(SCc3n[nH]c(=S)n3N)n2NC(=O)c2ccccc2)cs1 | Non-toxic |
| 472 nM | CC(=O)NNC(=O)CSc1nnc(Cc2csc(NCCC(=O)O)n2)n1NC(=O)c1ccccc1 | Non-toxic |
| 476 nM | CC(=O)Nn1c(Cc2csc(NCCC(=O)O)n2)nnc1SCC(=O)NNC(=O)c1ccccc1 | Non-toxic |
| 643 nM | CC(=O)NNC(=O)CSc1nnc(Cc2csc(NC(=O)c3ccccc3)n2)n1NC(C)=O | Non-toxic |
| 542 nM | O=C(CCl)NNC(=O)CSc1nnc(Cc2csc(NC(=O)c3ccccc3)n2)n1NC(=O)c1ccccc1 | Non-toxic |
| 462 nM | O=C(O)CCNc1nc(Cc2nnc(SCC(=O)NNC(=O)CCl)n2NC(=O)c2ccccc2)cs1 | Non-toxic |
| 635 nM | CC(=O)Nn1c(Cc2csc(NCCC(=O)O)n2)nnc1SCC(=O)N/N=C/c1ccccc1 | Non-toxic |
| 467 nM | COC(=O)CSc1nnc(Cc2csc(NC(C)=O)n2)n1NC(C)=O | Non-toxic |
| 464 nM | CC(=O)NNC(=O)CSc1nnc(Cc2csc(NC(=O)CCl)n2)n1NC(=O)c1ccc(Cl)cc1 | Non-toxic |
| 485 nM | CC(=O)Nc1nc(Cc2nnc(SCC(=O)N/N=C/c3ccccc3)n2NC(=O)c2ccccc2)cs1 | Non-toxic |
| 574 nM | CC(=O)Nn1c(Cc2csc(NC(=O)c3ccccc3)n2)nnc1SCC#N | Non-toxic |
| 186 nM | CC(=O)Nn1c(Cc2csc(NC(=O)c3ccccc3)n2)nnc1SCC(=O)NN | Non-toxic |
| 648 nM | COC(=O)CSc1nnc(Cc2csc(NCCC(=O)O)n2)n1NC(=O)c1ccccc1 | Non-toxic |

Second part, the compound before the results:

| Structure (SMILES) | IC50 [1] | Activity [2] |
| --- | --- | --- |
| O=C(O)CCNc1nc(Cc2nnc(SCC(=O)NNC(=O)c3ccccc3)n2NC(=O)c2ccc(Cl)cc2)cs1 | 268 nM | Non-toxic |
| Nn1c(CSc2nnc(Cc3csc(NC(=O)c4ccccc4)n3)n2NC(=O)c2ccc(Cl)cc2)n[nH]c1=S | 3180 nM | Non-toxic |
| CC(=O)NNC(=O)CSc1nnc(Cc2csc(NCCC(=O)O)n2)n1NC(=O)c1ccc(Cl)cc1 | 352 nM | Non-toxic |
| O=C(O)CCNc1nc(Cc2nnc(SCC(=O)NNC(=O)c3ccccc3)n2NC(=O)c2ccccc2)cs1 | 432 nM | Non-toxic |
| O=C(CSc1nnc(Cc2csc(NC(=O)c3ccccc3)n2)n1NC(=O)c1ccc(Cl)cc1)NNC(=O)c1ccccc1 | 484 nM | Non-toxic |
| CC(=O)Nc1nc(Cc2nnc(SCSc3nnc(Cc4csc(NC(C)=O)n4)n3NC(C)=O)n2NC(C)=O)cs1 | 847 nM | Non-toxic |
| O=C(CCl)NNC(=O)CSc1nnc(Cc2csc(NC(=O)CCl)n2)n1NC(=O)c1ccc(Cl)cc1 | 224 nM | Non-toxic |
| CC(=O)Nc1nc(Cc2nnc(S)n2NC(=O)c2ccc(Cl)cc2)cs1 | 462 nM | Non-toxic |
| O=C(CSc1nnc(Cc2csc(NC(=O)c3ccccc3)n2)n1NC(=O)c1ccc(Cl)cc1)N/N=C/c1ccccc1 | 246 nM | Non-toxic |
| O=C(O)CCNc1nc(Cc2nnc(S)n2NC(=O)c2ccccc2)cs1 | 674 nM | Non-toxic |
| O=C(O)CCNc1nc(Cc2nnc(SCC(=O)N/N=C/c3ccccc3)n2NC(=O)c2ccc(Cl)cc2)cs1 | 238 nM | Non-toxic |
| CC(=O)Nn1c(Cc2csc(NCCC(=O)O)n2)n[nH]c1=S | 436 nM | Non-toxic |
| CC(=O)Nn1c(Cc2csc(NCCC(=O)O)n2)nnc1SCc1nnc(S)n1N | 6410 nM | Non-toxic |
| CC(=O)Nn1c(Cc2csc(NC(=O)CCl)n2)nnc1SCC(=O)NNC(=O)CCl | 462 nM | Non-toxic |
| O=C(Nc1nc(Cc2n[nH]c(=S)n2NC(=O)c2ccccc2)cs1)c1ccccc1 | 894 nM | Non-toxic |
| O=C(CCl)Nc1nc(Cc2nnc(SCSc3nnc(Cc4csc(NC(=O)CCl)n4)n3NC(=O)c3ccccc3)n2NC(=O)c2ccccc2)cs1 | 674 nM | Non-toxic |
| N#CCSc1nnc(Cc2csc(NC(=O)CCl)n2)n1NC(=O)c1ccc(Cl)cc1 | 562 nM | Non-toxic |

| Structure (SMILES) | IC50 [1] | Activity [2] |
| --- | --- | --- |
| O=C(O)CCNc1nc(Cc2nnc(SCSc3nnc(Cc4csc(NCCC(=O)O)n4)n3NC(=O)c3ccc(Cl)cc3)n2NC(=O)c2ccc(Cl)cc2)cs1 | 168 nM | Non-toxic |
| COC(=O)CSc1nnc(Cc2csc(NCCC(=O)O)n2)n1NC(=O)c1ccc(Cl)cc1 | 560 nM | Non-toxic |
| Nn1c(Cc2csc(NC(=O)c3ccccc3)n2)n[nH]c1=S | 630 nM | Non-toxic |
| O=C(Nc1nc(Cc2nnc(SCSc3nnc(Cc4csc(NC(=O)c5ccccc5)n4)n3NC(=O)c3ccc(Cl)cc3)n2NC(=O)c2ccc(Cl)cc2)cs1)c1ccccc1 | 640 nM | Non-toxic |
| O=C(Nc1nc(Cc2nnc(SCSc3nnc(Cc4csc(NC(=O)c5ccccc5)n4)n3NC(=O)c3ccccc3)n2NC(=O)c2ccccc2)cs1)c1ccccc1 | 698 nM | Non-toxic |
| CC(=O)NNC(=O)CSc1nnc(Cc2csc(NCCC(=O)O)n2)n1NC(C)=O | 463 nM | Non-toxic |
| O=C(CCl)Nc1nc(Cc2nnc(SCSc3nnc(Cc4csc(NC(=O)CCl)n4)n3NC(=O)c3ccc(Cl)cc3)n2NC(=O)c2ccc(Cl)cc2)cs1 | 340 nM | Non-toxic |
| CC(=O)Nn1c(Cc2csc(NC(=O)CCl)n2)nnc1SCC#N | 415 nM | Non-toxic |
| Nn1c(S)nnc1Cc1csc(NCCC(=O)O)n1 | 264 nM | Non-toxic |
| COC(=O)CSc1nnc(Cc2csc(NCCC(=O)O)n2)n1NC(C)=O | 746 nM | Non-toxic |
| O=C(O)CCNc1nc(Cc2n[nH]c(=S)n2NC(=O)c2ccc(Cl)cc2)cs1 | 462 nM | Non-toxic |
| Nn1c(CSc2nnc(Cc3csc(NCCC(=O)O)n3)n2NC(=O)c2ccccc2)n[nH]c1=S | 4780 nM | Non-toxic |
| Nn1c(CSc2nnc(Cc3csc(NC(=O)CCl)n3)n2NC(=O)c2ccc(Cl)cc2)n[nH]c1=S | 3260 nM | Non-toxic |
| CC(=O)Nn1c(Cc2csc(NC(=O)CCl)n2)nnc1SCSc1nnc(Cc2csc(NC(=O)CCl)n2)n1NC(C)=O | 847 nM | Non-toxic |
| CC(=O)Nn1c(S)nnc1Cc1csc(NC(=O)CCl)n1 | 684 nM | Non-toxic |
| CC(=O)Nc1nc(Cc2nnc(SCC#N)n2NC(C)=O)cs1 | 463 nM | Non-toxic |
| CC(=O)Nc1nc(Cc2n[nH]c(=S)n2NC(C)=O)cs1 | 598 nM | Non-toxic |

Source: ChEMBL document CHEMBL1147182, “Clubbed thiazoles by MAOS: a novel approach to cyclin-dependent kinase 5/p25 inhibitors as a potential treatment for Alzheimer's disease” (Bioorg Med Chem, 2007)
